Here are results for eleven molecules from ChEMBL document CHEMBL3044879, “Design, synthesis, and preliminary in vitro and in vivo pharmacological evaluation of 4-{4-[2-(4-(2-substitutedquinoxalin-3-yl)piperazin-1-yl)ethyl]phenyl}thiazoles as atypical antipsychotic agents” (Med Chem Res, 2013).

For data set [1], the system named is Mus musculus. Briefly: Antagonist activity at nigrostriatal dopaminergic D2 receptor in Swiss albino Mus musculus (mouse) assessed as maximum average cataleptic time at 10 mg/kg, ip after 1 to 5 hr relative to vehicle-treated control. In kind it is organism-based. Also on record: dose 10 mg/kg, route intraperitoneal. The conditions noted are these: in vivo.
The test system of data set [2] is Mus musculus. In words: In vivo inhibition of 5-HT2A receptor in Swiss albino Mus musculus (mouse) at 10 mg/kg, ip relative to vehicle-treated control. Type of data set: functional. The conditions noted are these: route intraperitoneal.
In data set [3] the target is D(2) dopamine receptor (Rattus norvegicus) (UniProt P61169). Briefly: Displacement of [3H]spiperone from dopaminergic D2 receptor in Rattus norvegicus (rat) straitum membrane homogenates up to 1 uM after 60 min by liquid scintillation counting analysis. (In general: In a radioligand displacement assay an active substance lowers the binding of a labelled ligand.)
Chain of D(2) dopamine receptor (Rattus norvegicus) (P61169 whole entry): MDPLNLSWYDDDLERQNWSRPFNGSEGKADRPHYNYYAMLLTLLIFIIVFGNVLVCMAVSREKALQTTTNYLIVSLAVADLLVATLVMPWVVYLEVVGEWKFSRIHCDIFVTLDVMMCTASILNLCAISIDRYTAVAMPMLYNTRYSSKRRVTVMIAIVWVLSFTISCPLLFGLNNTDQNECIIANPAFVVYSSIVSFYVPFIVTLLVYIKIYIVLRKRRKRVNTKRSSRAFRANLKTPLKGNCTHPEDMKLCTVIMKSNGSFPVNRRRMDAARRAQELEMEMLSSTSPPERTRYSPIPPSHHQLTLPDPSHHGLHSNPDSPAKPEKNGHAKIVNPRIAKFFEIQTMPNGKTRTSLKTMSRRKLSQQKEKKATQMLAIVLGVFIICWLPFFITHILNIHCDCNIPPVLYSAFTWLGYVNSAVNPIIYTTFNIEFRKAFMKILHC
Data set [4] concerns Mus musculus. In words: Antagonist activity at mesolimbic dopaminergic D2 receptor in Swiss albino Mus musculus (mouse) assessed as inhibition of apomorphine-induced cage climbing behavior at 10 mg/kg, ip administered 1 hr prior to apomorphine challenge measured after 10 min relative to vehicle-treated control. Type of data set: functional. The conditions noted are these: route intraperitoneal.

Data set [5] relates to Mus musculus. In words: In vivo inhibition of dopaminergic D2 receptor in Swiss albino Mus musculus (mouse) at 10 mg/kg, ip relative to vehicle-treated control. Type of data set: functional. The conditions noted are these: route intraperitoneal.
Data set [6] concerns Mus musculus. Briefly: Antagonist activity at mesolimbic dopaminergic D2 receptor in Swiss albino Mus musculus (mouse) assessed as inhibition of apomorphine-induced cage climbing behavior at 10 mg/kg, ip administered 1 hr prior to apomorphine challenge measured after 30 min relative to vehicle-treated control. In kind it is functional. The conditions noted are these: route intraperitoneal.

Data set [7] concerns the target 5-hydroxytryptamine receptor 2A (Rattus norvegicus) (UniProt P14842). Briefly: Displacement of [3H]ketanserin from 5-HT2A receptor in Rattus norvegicus (rat) cortex membrane homogenates at 10 uM after 90 min by liquid scintillation counting analysis.
Data set [8] has the same target. Briefly: Displacement of [3H]ketanserin from 5-HT2A receptor in Rattus norvegicus (rat) cortex membrane homogenates up to 1 uM after 90 min by liquid scintillation counting analysis.
The test system of data set [9] is Mus musculus. In words: Antagonist activity at central serotonergic 5-HT2A receptor in Swiss albino Mus musculus (mouse) assessed as inhibition of quipazine meleate-induced head twiches at 10 mg/kg, ip administered 1 hr prior to quipazine meleate challenge measured after 30 to 40 min relative to vehicle-treated control. Type of data set: functional. The conditions noted are these: route intraperitoneal.

Data set [10] relates to Mus musculus. Briefly: Antagonist activity at mesolimbic dopaminergic D2 receptor in Swiss albino Mus musculus (mouse) assessed as inhibition of apomorphine-induced cage climbing behavior at 10 mg/kg, ip administered 1 hr prior to apomorphine challenge measured after 20 min relative to vehicle-treated control. The conditions noted are these: route intraperitoneal. In kind it is functional.

In data set [11] the test system is Mus musculus. Briefly: Selectivity ratio of inhibition of 5-HT2A receptor in Swiss albino Mus musculus (mouse) to inhibition of dopaminergic D2 receptor in Swiss albino Mus musculus (mouse) at 10 mg/kg, ip. Type of data set: functional. The conditions noted are these: route intraperitoneal.
Data set [12] has as its target D(2) dopamine receptor (Rattus norvegicus) (UniProt P61169). Briefly: Displacement of [3H]spiperone from D2 receptor in Rattus norvegicus (rat) straitum membrane homogenates at 100 uM after 60 min by liquid scintillation counting analysis.
The target is the same in data set [13]. In words: Displacement of [3H]spiperone from D2 receptor in Rattus norvegicus (rat) straitum membrane homogenates at 10 uM after 60 min by liquid scintillation counting analysis.

The source made the active and inactive calls. The calls are words filed in the database; no cut-off is given here.

Chain of 5-hydroxytryptamine receptor 2A (Rattus norvegicus) (P14842 whole entry): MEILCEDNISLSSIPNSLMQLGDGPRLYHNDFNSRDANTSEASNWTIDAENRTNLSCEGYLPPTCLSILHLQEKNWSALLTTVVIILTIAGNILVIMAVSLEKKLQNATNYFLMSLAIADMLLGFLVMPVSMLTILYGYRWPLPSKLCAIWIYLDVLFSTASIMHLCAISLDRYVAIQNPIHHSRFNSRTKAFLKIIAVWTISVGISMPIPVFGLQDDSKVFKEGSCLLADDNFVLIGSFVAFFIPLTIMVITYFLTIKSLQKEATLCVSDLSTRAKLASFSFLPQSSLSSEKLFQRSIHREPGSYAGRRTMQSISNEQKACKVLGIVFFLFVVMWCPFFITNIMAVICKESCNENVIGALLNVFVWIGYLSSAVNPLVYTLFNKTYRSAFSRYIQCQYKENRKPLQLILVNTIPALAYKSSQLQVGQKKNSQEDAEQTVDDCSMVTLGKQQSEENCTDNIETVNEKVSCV

By inhibition in vivo is commonly meant the share of the control response that was lost under treatment. One may read the inhibition as the change of the read-out against control, counted positive when it falls. Consider `CNc1nc(-c2ccc(CCN3CCN(c4nc5ccccc5nc4Cl)CC3)cc2)cs1`, for which, in [1], the Time came to 3.96 s. Further, the inhibition in vivo at 10 mg/kg was 41% in data set [2]; 60% in [4]; 80% in data set [6]; 41% in data set [9]; 80% in data set [10]. Besides, the inhibition entry in data set [3] and in data set [8] was “inactive” in each case. For the same molecule, the Imax in data set [5] is given as 80%. Moreover, the results for the inhibition in data set [7] and in data set [12] were 14% and 0%, respectively. For the same molecule, the Selectivity ratio in data set [11] was determined as 0.5125.

As to `Cc1sc(N)nc1-c1ccc(CCN2CCN(c3cnc4ccccc4n3)CC2)cc1`, the Time in [1] amounted to 2.64 s. In addition, the inhibition in vivo at 10 mg/kg was 31% in data set [2]; 95% in data set [4]; 60% in data set [6]; 31% in data set [9]; 80% in data set [10]. The inhibition entry in data set [3] and in data set [8] was “inactive” throughout. Besides, the Imax in data set [5] was determined as 95%. Moreover, the inhibition in [7] came out at 58%; in data set [12], 0%. Moreover, in data set [11], the Selectivity ratio came out at 0.3263.

`COc1nc2ccccc2nc1N1CCN(CCc2ccc(-c3csc(C)n3)cc2)CC1`: the Time in data set [1] is 6.25 s. The inhibition in vivo at 10 mg/kg turned out to be 62% in data set [2]; 85% in data set [4]; 65% in data set [6]; 62% in data set [9]; 70% in [10]. For the same molecule, the inhibition result in [3], in data set [13] and in [8] was “inactive” each time. In [5], this molecule displayed an Imax of 85%. The inhibition in data set [7] worked out at 68%; in data set [12], 82%. Moreover, the Selectivity ratio in data set [11] amounted to 0.7294.

For `Oc1nc(-c2ccc(CCN3CCN(c4cnc5ccccc5n4)CC3)cc2)cs1`, the Time in [1] was 3.19 s. The inhibition in vivo at 10 mg/kg was 80% in data set [2]; 60% in data set [4]; 65% in data set [6]; 80% in [9]; 65% in [10]. For the same molecule, the inhibition result in [3] and in [8] was “inactive” in each case. The molecule further displayed an Imax in data set [5] of 65%. Further, the results for the inhibition in [7] and in data set [12] were 22% and 0%, respectively. The Selectivity ratio in data set [11] is 1.231.

`Cc1nc(-c2ccc(CCN3CCN(c4nc5ccccc5nc4Cl)CC3)cc2)c(C)s1`: in [1], the Time worked out at 9.25 s. The inhibition in vivo at 10 mg/kg in data set [2] is 51%; in [4], 60%; in [6] it was 80%; in data set [9], 51%; in [10] it was 60%. Besides, the inhibition result in data set [3] and in data set [8] was “inactive” throughout. The molecule also displayed an Imax in [5] of 80%. The inhibition was determined as 31% in data set [7] and 0% in data set [12]. The Selectivity ratio in data set [11] came out at 0.6375.

With `Nc1nc(-c2ccc(CCN3CCN(c4cnc5ccccc5n4)CC3)cc2)cs1`, the Time in data set [1] was 9.21 s. The inhibition in vivo at 10 mg/kg in [2] is 15%; in [4], 60%; in data set [6] it was 65%; in data set [9], 15%; in data set [10], 75%. Besides, the inhibition result in data set [3], in [13] and in data set [8] was “inactive” in each case. The molecule further displayed an Imax in [5] of 75%. The values for the inhibition in data set [7] and in [12] were 51% and 26%, respectively. Besides, the Selectivity ratio in [11] came out at 0.2.

For `CNc1nc(-c2ccc(CCN3CCN(c4cnc5ccccc5n4)CC3)cc2)cs1`, in data set [1], the Time turned out to be 9.32 s. In addition, the inhibition in vivo at 10 mg/kg was found to be 36% in data set [2]; 25% in [4]; 60% in data set [6]; 36% in data set [9]; 50% in data set [10]. The inhibition result in data set [3] and in data set [8] was “inactive” throughout. This molecule also gave an Imax in data set [5] of 60%. Further, the inhibition in data set [7] was 57%; in data set [12], 0%. In [11], the Selectivity ratio came out at 0.6.

For the molecule `COc1nc2ccccc2nc1N1CCN(CCc2ccc(-c3csc(O)n3)cc2)CC1`, the Time in data set [1] was 7.9 s. For the same molecule, the inhibition in vivo at 10 mg/kg in data set [2] worked out at 67%; in [4], 65%; in data set [6], 60%; in [9], 67%; in data set [10], 60%. Also, the inhibition result in [3] and in [8] was “inactive” throughout. The Imax in data set [5] turned out to be 65%. Also, the inhibition was 28% in data set [7] and 0% in [12]. Moreover, the Selectivity ratio in data set [11] came to 1.031.

With `Cc1sc(N)nc1-c1ccc(CCN2CCN(c3nc4ccccc4nc3Cl)CC2)cc1`, in data set [1], the Time is given as 23.5 s. Besides, the inhibition in vivo at 10 mg/kg in data set [2] turned out to be 86%; in data set [4], 80%; in [6], 65%; in data set [9], 86%; in data set [10] it was 80%. The inhibition entry in [3] and in data set [8] was “inactive” throughout. Besides, in data set [5], the Imax is recorded as 80%. Further, the inhibition in [7] and in data set [12] was 0% throughout. Besides, the Selectivity ratio in data set [11] is recorded as 1.075.

As to `Cc1nc(-c2ccc(CCN3CCN(c4nc5ccccc5nc4Cl)CC3)cc2)cs1`, in data set [1], the Time amounted to 3.25 s. Besides, the inhibition in vivo at 10 mg/kg in data set [2] turned out to be 62%; in data set [4], 80%; in data set [6], 75%; in [9] it was 62%; in data set [10] it was 65%. Further, the inhibition entry in [3] and in data set [8] was “inactive” throughout. Besides, the Imax in data set [5] is given as 80%. Also, the inhibition amounted to 30% in data set [7] and 0% in [12]. For the same molecule, in data set [11], the Selectivity ratio was found to be 0.775.

With `Nc1nc(-c2ccc(CCN3CCN(c4nc5ccccc5nc4Cl)CC3)cc2)cs1`, the Time in data set [1] amounted to 18.24 s. Moreover, the inhibition in vivo at 10 mg/kg in [2] was determined as 79%; in [4], 65%; in data set [6], 70%; in data set [9], 79%; in [10], 60%. Besides, the inhibition entry in [3] and in [8] was “inactive” in each case. The Imax in data set [5] amounted to 70%. Further, the inhibition in data set [7] was 4%; in [12], 0%. Besides, the Selectivity ratio in data set [11] amounted to 1.129.
